Holding throughout (type): physicochemical
The nature of data set [1]: Bound lipophile index (SEC peak area ratio 280 nm/214 nm). The conditions noted are these: Example 35 model systems.
Method: The size exclusion chromatography (SEC) system used in the following Examples is as follows: Column: Superdex Peptide 10/300 GL, GE Healthcare P/N 17-5176-01; Mobile Phase: 700 mL Milli-Q Plus water, 300 mL acetonitrile; 1.0 mL trifluoroacetic acid; Flow Rate: 0.4 mL/minute; Temperature: ambient (˜21° C.); Detection: UV light at 214 nm, 280 nm; visible light at 476 nm; Injection: 10 μL; Run Time: 70 minutes; Sample Preparation: dilute 0.6-1.1 g to 10 mL with Mobile Phase; Calibration: by 6 purified reference proteins, 14.2-160 kD.
The bound lipophile index is determined as follows: a non-specific indicator of lipophilic nutrients (including lutein and any combination of other oil soluble vitamins) in the high MW protein peak (described above). […]
A study was conducted to evaluate the effect of relative centrifugal force (RCF) on analyzing the high molecular weight lutein assembly in the aqueous phase. […] The compositions were then assessed for high molecular weight lutein assembly and the presence of protein >137 kD as done above, as well as bound lipophile index. Bound lipophile index, a relative marker for of lipophilic nutrients in the high molecular weight assembly, was determined as the peak ratio, 280 nm/214 nm for protein >137 kD.
Data set [2] can be described thus: Distribution of lutein and MDG in cream, aqueous and pellet layers after 100,000×g (Example 58). As to conditions: 100,000×g for 1 hour; wt % of the nutritional composition. The method, then:
A study was conducted to investigate the distribution of lutein and MDG within the nutritional compositions. Sample were prepared using homogenization at 150/20 bar, and then centrifuged at 100,000×g for 1 hour. The different layers (e.g., cream, aqueous, and pellet) were then analyzed for the presence of lutein and MDG.

A short description of data set [3]: Centrifugation/ultrafiltration analysis of lutein and MDG distribution (Example 60). As to conditions: centrifugation at 100,000×g. The protocol: A study was conducted to further investigate the distribution of lutein and MDG within the nutritional composition. Samples included MDG/lutein/water; MDG/lutein/NFDM/water; MDG/lutein/WPC/water; and MDG/water.
The premixes were provided as follows: in samples that contained lutein, lutein was heated for 2 h at 50° C. with shaking. […] In samples that contained protein, non-fat dried milk was added to water (50-60° C.) with agitation and allowed to hydrate for approximately 10 min.
The samples were prepared as follows: for solution 1, water was heated to 50-60° C., an lutein in GMO-40 blend and turrax (30 sec 10000 rpm) was added; for solution 2, NFDM was placed in water solution heated to 50-60° C., and lutein was added in GMO-40 blend and turrax (30 sec 10000 rpm); for solution 3, water was heated to 50-60° C., and GMO-40 blend and turrax (30 sec 10000 rpm) was added. The solutions are listed in the table below as X.1, wherein 1 is the solution.
Samples were formulated as detailed above, and then characterized by ultrafiltration with various membranes, as well as ultracentrifuged at various times and speed (e.g., 100,000×g, 4,500×g, and 1,000×g). The details of the different centrifugation/filtration method are listed below. […]

From US12628856B2, “Nutritional composition having lipophilic compounds with improved solubility and bioavailability” (Abbott Laboratories, priority 2013, dated 2026) come the findings set out here.

As to `C[N+](C)(C)CCO` [choline], the “bound lipophile index when choline was present” value in data set [1] was “decreased”.

In the case of `CC1=C[C@H](O)CC(C)(C)[C@H]1/C=C/C(C)=C/C=C/C(C)=C/C=C/C=C(C)/C=C/C=C(C)/C=C/C1=C(C)C[C@@H](O)CC1(C)C` [lutein], in data set [2], the “present in the aqueous phase following centrifugation” value was “approximately 4 wt %”. Also, the “lutein in the aqueous phase” value in data set [3] (samples containing only lutein and MDG) is “negligible”; in data set [3] (samples containing protein), “only found in the aqueous phase of samples containing protein”.
